Values of other authors as cited in US12378302B2, “Fusion molecules and uses thereof” (Foundation Medicine, Inc., priority 2012, dated 2025).
Read-outs that look alike come from different tables or passages of the source. Each block holds one compound with its values, some of them ahead of it.

How the values were obtained:
[1] = tested on: HER2, PDGFR, VEGFR-2, Bcr-Abl and c-Kit
InsR = InsR (Homo sapiens, UniProt P06213)
EGFR [2] = target: T1, EGFR (Homo sapiens, UniProt P00533); conditions: ErbB family vs other kinases
ALK = ALK (Homo sapiens, UniProt Q9UM73); conditions: read-out: IC50 ALK
CDK1/2/3/4/7/9 = conditions: range over the CDKs
[3] = tested on: Abl, Fyn, Kit, Lck, Lyn and Yes
[4] = tested on: Abl, Fyn, Kit, Lck, Lyn and Yes; remark: listed apart in the source
VEGFR2 = conditions: VEGFR2/3 vs FGFR1, PDGFRα/β
CaMK = conditions: competitively with ATP
[5] = tested on: phosphorylation of FGFR-1, EGFR or c-Met
[6] = tested on: myeloproliferative disorders
HEL92.1.7 cells [7] = conditions: read-out: IC50 antiproliferative activity
[8] = tested on: myeloproliferative disorders; remark: listed apart in the source
STAT5 phosphorylation [9] = tested on: STAT5 phosphorylation
HEL92.1.7 cells [10] = conditions: read-out: IC50 antiproliferative activity in vitro
STAT5 phosphorylation [11] = conditions: read-out: IC50 for prevention of STAT5 phosphorylation
c-Met [12] = target: c-Met (Homo sapiens, UniProt P08581); conditions: read-out: IC50 against c-Met (WT/mutants)
c-Met [13] = tested on: c-Met
[14] = tested on: CDK1/2/5, EGFR, FGFR, PDGFR, and InsR
B-Raf^V600E = B-Raf^V600E (Homo sapiens, UniProt P15056, V600E); conditions: V600E vs wild-type
[15] = target: c-Raf-1 (Y340D and Y341D mutations) (Homo sapiens, UniProt P04049, Y340D/Y341D)
H460 cells = conditions: read-out: IC50 reduction of colony number and size
[16] = tested on: Akt1, CDKs, PLK1, EGFR, IGF-1R, c-Met, Flt2 etc.
VEGFR3 = VEGFR3 (Homo sapiens, UniProt P35916)
[17] = tested on: FGFR-1, Flt3, c-Met EGFR and IGF-1R
[18] = tested on: FGFR-1, Flt3, c-Met EGFR and IGF-1R; remark: listed apart in the source
EGFR [19] = target: T1, EGFR
PDGFR = conditions: read-out: IC50 against PDGFR

VEGFR3, sequence (P35916 25-1363): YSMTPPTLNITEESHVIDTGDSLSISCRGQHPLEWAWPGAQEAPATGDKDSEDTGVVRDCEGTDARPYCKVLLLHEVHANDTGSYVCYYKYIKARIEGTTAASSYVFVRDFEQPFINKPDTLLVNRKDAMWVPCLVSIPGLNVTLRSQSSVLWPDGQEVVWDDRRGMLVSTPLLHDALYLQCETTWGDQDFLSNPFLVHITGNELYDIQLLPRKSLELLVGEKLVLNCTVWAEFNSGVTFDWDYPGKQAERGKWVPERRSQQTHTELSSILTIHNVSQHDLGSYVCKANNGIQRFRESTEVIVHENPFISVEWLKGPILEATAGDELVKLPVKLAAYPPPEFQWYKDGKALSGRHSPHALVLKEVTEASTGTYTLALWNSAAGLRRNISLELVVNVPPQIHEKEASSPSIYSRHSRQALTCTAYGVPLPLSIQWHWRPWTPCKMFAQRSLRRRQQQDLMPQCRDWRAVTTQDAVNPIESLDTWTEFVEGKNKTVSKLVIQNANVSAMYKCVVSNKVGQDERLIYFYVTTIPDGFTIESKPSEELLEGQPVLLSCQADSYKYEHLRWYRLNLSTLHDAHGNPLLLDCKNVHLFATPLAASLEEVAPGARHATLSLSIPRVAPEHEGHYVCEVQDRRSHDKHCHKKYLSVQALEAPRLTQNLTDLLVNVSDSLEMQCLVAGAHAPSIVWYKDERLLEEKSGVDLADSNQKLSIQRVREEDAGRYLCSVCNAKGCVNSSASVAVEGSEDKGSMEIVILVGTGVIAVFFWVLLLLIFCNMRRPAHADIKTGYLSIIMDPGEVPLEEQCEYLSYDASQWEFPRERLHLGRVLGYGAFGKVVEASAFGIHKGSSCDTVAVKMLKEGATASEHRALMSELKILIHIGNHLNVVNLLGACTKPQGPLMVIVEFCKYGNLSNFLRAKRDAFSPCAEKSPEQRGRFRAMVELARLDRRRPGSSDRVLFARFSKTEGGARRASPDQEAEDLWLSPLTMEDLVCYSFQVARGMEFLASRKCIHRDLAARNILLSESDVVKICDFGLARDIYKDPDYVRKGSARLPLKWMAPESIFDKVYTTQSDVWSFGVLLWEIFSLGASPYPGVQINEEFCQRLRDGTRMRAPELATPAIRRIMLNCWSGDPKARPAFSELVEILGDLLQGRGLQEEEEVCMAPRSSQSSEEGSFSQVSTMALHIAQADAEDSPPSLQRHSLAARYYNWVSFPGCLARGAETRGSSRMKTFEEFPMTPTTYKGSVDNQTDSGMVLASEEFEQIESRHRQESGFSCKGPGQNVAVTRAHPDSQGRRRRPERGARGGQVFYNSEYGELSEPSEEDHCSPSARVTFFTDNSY
T1 sequence (P00533 25-1210): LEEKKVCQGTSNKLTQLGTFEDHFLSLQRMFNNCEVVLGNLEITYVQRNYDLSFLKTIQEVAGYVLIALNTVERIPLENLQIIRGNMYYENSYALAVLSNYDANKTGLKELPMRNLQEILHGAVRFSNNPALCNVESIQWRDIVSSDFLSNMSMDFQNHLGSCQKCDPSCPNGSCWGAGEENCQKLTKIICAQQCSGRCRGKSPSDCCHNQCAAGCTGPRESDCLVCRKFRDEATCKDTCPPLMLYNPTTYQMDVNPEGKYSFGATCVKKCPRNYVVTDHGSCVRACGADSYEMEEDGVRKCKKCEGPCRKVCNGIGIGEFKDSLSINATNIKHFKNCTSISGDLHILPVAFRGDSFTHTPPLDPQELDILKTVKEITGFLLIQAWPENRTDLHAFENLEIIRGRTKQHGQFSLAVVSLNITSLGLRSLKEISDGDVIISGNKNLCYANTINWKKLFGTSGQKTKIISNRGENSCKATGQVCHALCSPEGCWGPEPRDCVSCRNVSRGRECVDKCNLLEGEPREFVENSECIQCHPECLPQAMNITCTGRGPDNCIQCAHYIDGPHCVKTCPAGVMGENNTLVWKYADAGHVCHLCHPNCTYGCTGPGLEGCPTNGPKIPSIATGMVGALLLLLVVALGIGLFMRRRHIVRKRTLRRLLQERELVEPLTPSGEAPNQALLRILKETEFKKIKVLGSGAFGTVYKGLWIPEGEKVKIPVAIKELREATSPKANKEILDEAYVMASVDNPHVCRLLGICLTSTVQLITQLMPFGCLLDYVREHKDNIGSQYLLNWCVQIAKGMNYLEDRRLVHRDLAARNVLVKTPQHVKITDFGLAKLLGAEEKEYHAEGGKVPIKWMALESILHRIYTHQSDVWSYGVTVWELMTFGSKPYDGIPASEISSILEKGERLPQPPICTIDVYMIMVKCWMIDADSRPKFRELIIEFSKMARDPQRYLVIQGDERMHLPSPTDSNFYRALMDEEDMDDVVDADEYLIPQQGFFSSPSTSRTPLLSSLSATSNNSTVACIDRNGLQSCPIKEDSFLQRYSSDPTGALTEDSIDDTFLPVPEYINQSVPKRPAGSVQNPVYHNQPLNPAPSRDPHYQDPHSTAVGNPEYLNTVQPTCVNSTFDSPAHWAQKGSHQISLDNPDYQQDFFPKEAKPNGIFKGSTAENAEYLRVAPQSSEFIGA
B-Raf^V600E, sequence (P15056 whole entry V600E): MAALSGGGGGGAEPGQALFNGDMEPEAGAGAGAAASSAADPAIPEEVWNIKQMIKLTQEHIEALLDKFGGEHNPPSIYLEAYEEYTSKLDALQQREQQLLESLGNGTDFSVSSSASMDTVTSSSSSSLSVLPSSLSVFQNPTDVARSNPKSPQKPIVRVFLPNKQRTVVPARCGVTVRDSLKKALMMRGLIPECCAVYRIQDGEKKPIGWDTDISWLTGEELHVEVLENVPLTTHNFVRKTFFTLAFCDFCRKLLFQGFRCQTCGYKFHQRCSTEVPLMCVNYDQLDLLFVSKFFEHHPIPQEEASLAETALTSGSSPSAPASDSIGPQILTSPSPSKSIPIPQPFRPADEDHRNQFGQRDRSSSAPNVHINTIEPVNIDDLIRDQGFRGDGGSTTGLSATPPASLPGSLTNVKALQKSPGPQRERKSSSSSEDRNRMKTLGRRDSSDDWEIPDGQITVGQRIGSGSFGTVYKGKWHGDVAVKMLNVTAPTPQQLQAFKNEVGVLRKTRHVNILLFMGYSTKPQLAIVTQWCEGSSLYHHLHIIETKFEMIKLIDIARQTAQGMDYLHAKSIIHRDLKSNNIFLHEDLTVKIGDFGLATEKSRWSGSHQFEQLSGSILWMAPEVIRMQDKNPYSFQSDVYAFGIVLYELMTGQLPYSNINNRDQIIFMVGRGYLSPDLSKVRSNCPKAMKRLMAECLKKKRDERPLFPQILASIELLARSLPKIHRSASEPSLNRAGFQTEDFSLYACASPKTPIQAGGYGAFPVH
c-Raf-1 (Y340D and Y341D mutations), sequence (P04049 whole entry Y340D/Y341D): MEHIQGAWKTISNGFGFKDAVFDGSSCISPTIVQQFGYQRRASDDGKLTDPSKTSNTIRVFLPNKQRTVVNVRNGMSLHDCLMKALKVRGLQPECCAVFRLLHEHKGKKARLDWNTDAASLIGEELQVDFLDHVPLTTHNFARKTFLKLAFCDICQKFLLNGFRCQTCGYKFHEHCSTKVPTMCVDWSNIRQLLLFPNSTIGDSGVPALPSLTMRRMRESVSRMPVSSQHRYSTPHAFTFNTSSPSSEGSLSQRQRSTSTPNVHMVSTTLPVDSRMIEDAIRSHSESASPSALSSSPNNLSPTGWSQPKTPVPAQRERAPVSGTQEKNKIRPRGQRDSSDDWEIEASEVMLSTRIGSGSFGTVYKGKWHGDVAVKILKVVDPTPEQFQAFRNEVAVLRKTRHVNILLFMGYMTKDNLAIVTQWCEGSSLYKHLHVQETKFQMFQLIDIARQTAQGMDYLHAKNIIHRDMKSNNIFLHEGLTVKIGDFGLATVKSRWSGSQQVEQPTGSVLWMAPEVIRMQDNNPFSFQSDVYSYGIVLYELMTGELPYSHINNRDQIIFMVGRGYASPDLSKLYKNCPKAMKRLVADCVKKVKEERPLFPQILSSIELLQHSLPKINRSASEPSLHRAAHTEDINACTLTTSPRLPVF

Compound: Nc1ncnc2c1c(-c1cccc(OCc3ccccc3)c1)cn2C1CC(CN2CCCC2)C1 (stereo in doubt) [NVP-ADW742, 5-(3-(benzyloxy)phenyl)-7-((1r,3r)-3-(pyrrolidin-1-ylmethyl)cyclobutyl)-7H-pyrrolo[2,3-d]pyrimidin-4-amine]
activity to HER2, PDGFR, VEGFR-2, Bcr-Abl and c-Kit [1]: little activity

IC50 (InsR): 57 µM
Compound: CC(C)(C)c1cc(C=C(C#N)C#N)cc(Br)c1O [AG-1024, 2-(3-bromo-5-tert-butyl-4-hydroxybenzylidene) malononitrile]

selective for ErbB family than other kinases (EGFR [2]): 3000 fold
Compound: C=CC(=O)Nc1ccc2ncnc(Nc3ccc(OCc4cccc(F)c4)c(Cl)c3)c2c1.Cc1ccc(S(=O)(=O)O)cc1 [AST-1306, 2-Propenamide, N-[4-[[3-chloro-4-[(3-fluorophenyl)methoxy]phenyl]amino]-6-quinazolinyl]-, 4-methylbenzenesulfonate (1:1)]

Compound: COc1cc(CCc2cc(NC(=O)c3ccc(N4C[C@@H](C)N[C@@H](C)C4)cc3)n[nH]2)cc(OC)c1 [AZD4547, N-(5-(3,5-dimethoxyphenethyl)-1H-pyrazol-3-yl)-4-((3S,5R)-3,5-dimethylpiperazin-1-yl)benzamide]
Activity against FGFR4, VEGFR2 (KDR) (FGFR4, VEGFR2 (KDR)): weaker activity

IC50 (ALK): 0.022 µM
Compound: COc1cc(N2CCC(N)CC2)ccc1Nc1ncc(Cl)c(-c2c[nH]c3ccccc23)n1 [AZD-3463, 2-Pyrimidinamine, N-[4-(4-amino-1-piperidinyl)-2-methoxyphenyl]-5-chloro-4-(1H-indol-3-yl)-]

IC50 (CDK1/2/3/4/7/9): 0.005 to 0.025 µM
Compound: C[C@@H](O)[C@@H](C)Oc1nc(Nc2ccc(S(=N)(=O)C3CC3)cc2)ncc1C(F)(F)F (stereo partly drawn) [BAY 1000394, 2-Butanol, 3-[[2-[[4-[[S(R)]—S-cyclopropylsulfonimidoyl]phenyl]amino]-5-(trifluoromethyl)-4-pyrimidinyl]oxy]-, (2R,3R)—]

Compound: CCN1CCN(c2ccc(Nc3cc(N(C)C(=O)Nc4c(Cl)c(OC)cc(OC)c4Cl)ncn3)cc2)CC1 [BGJ398, 3-(2,6-dichloro-3,5-dimethoxyphenyl)-1-(6-(4-(4-ethylpiperazin-1-yl)phenylamino)pyrimidin-4-yl)-1-methylurea]
activity to Abl, Fyn, Kit, Lck, Lyn and Yes [3]: little activity
activity to Abl, Fyn, Kit, Lck, Lyn and Yes [4]: little activity

Compound: COc1cc2nccc(Oc3ccc(NC(=O)NC4CC4)c(Cl)c3)c2cc1C(N)=O [E7080, 1-(4-(6-carbamoyl-7-methoxyquinolin-4-yloxy)-2-chlorophenyl)-3-cyclopropylurea]
more selective for VEGFR2/3 against FGFR1, PDGFRα/β (VEGFR2): ~10 fold

Compound: COc1cc2c(Oc3ccc(NC(=O)C4(C(=O)Nc5ccc(F)cc5)CC4)cc3F)ccnc2cc1OCCCN1CCOCC1 [Foretinib, N-(3-fluoro-4-(6-methoxy-7-(3-morpholinopropoxy)quinolin-4-yloxy)phenyl)-N-(4-fluorophenyl)cyclopropane-1,1-dicarboxamide]
activity to FGFR1 and EGFR (FGFR1 and EGFR): little activity

Compound: CNC(=O)c1c(F)cccc1Nc1nc(Nc2cc3c(cc2OC)CCN3C(=O)CN(C)C)nc2[nH]ccc12 [GSK1838705A, 2-(2-(1-(2-(dimethylamino)acetyl)-5-methoxyindolin-6-ylamino)-7H-pyrrolo[2,3-d]pyrimidin-4-ylamino)-6-fluoro-N-methylbenzamide]
activity to other protein kinases (other protein kinases): little activity

Compound: COC(=O)[C@@]1(O)C[C@H]2O[C@]1(C)n1c3ccccc3c3c4c(c5c6ccccc6n2c5c31)C(=O)NC4 [K252a]
Ki (PKG): 0.02 µM
Ki (CaMK): 0.0018 µM
Ki (PKA): 0.018 µM
Ki (PKC): 0.025 µM

Compound: CCCNC(=O)Nc1ccc(Oc2ncnc3cc(OC)c(OC)cc23)cc1Cl [KRN 633, 1-(2-chloro-4-(6,7-dimethoxyquinazolin-4-yloxy)phenyl)-3-propylurea]
block of the phosphorylation of FGFR-1, EGFR or c-Met in cell [5]: does not block

Compound: C[C@]12O[C@H](C[C@]1(O)CO)n1c3ccccc3c3c4c(c5c6ccccc6n2c5c31)CNC4=O [Lestaurtinib, (9S,10S,12R)-2,3,9,10,11,12-Hexahydro-10-hydroxy-10-(hydroxymethyl)-9-methyl-9,12-epoxy-1H-diindolo[1,2,3-fg:3′,2′,l′-kl]pyrrolo[3,4-i][1, 6]benzodiazocin-1-one]
effect against myeloproliferative disorders in vivo [6]: effective
IC50 (HEL92.1.7 cells [7]): 0.03 to 0.1 µM
effect against myeloproliferative disorders in vivo [8]: effective
IC50 (STAT5 phosphorylation [9]): 0.02 to 0.03 µM
IC50 (HEL92.1.7 cells [10]): 0.03 to 0.1 µM
IC50 (STAT5 phosphorylation [11]): 0.02 to 0.03 µM

IC50 (Aβ40 production): 0.005 µM
Compound: O=C(O)CC[C@H]1CC[C@@](c2cc(F)ccc2F)(S(=O)(=O)c2ccc(Cl)cc2)CC1 [MK-0752, 3-((1r,4s)-4-(4-chlorophenylsulfonyl)-4-(2,5-difluorophenyl)cyclohexyl)propanoic acid]

Compound: CN(C[C@@H]1COCCO1)S(=O)(=O)Nc1ccc2ccc3ncc(-c4cnn(C)c4)cc3c(=O)c2c1 [MK-2461, N-((2R)-1,4-Dioxan-2-ylmethyl)-N-methyl-N′-[3-(1-methyl-1H-pyrazol-4-yl)-5-oxo-5H-benzo[4,5]cyclohepta[1,2-b]pyridin-7-yl]sulfamide]
Potency to Ron, Flt1 (Ron, Flt1): less potent
IC50 (c-Met [12]): 0.0004 to 0.0025 µM
Selectivity of c-Met targets versus FGFR1, FGFR2, FGFR3, PDGFRβ, KDR, Flt3, Flt4, TrkA, and TrkB (c-Met [13]): 8- to 30 fold

Compound: CC(=O)c1c(C)c2cnc(Nc3ccc(N4CCNCC4)cn3)nc2n(C2CCCC2)c1=O [PD0332991 Isethionate, Ethanesulfonic acid, 2-hydroxy-, compd. with 6-acetyl-8-cyclopentyl-5-methyl-2-[[5-(1-piperazinyl)-2-pyridinyl]amino]pyrido[2,3-d]pyrimidin-7(8H)-one (1:1)]
activity against CDK1/2/5, EGFR, FGFR, PDGFR, and InsR [14]: no activity

selectivity for B-RafV600E than wild-type B-Raf (B-Raf^V600E): 10 fold
potency to c-Raf-1 (Y340D and Y341D mutations) relative to B-Raf V600E [15]: equally potent
Compound: CCCS(=O)(=O)Nc1ccc(F)c(C(=O)c2c[nH]c3ncc(Cl)cc23)c1F [PLX4720, N-(3-(5-chloro-1H-pyrrolo[2,3-b]pyridine-3-carbonyl)-2,4-difluorophenyl) propane-1-sulfonamide]

IC50 (H460 cells): 24.5 µM
Compound: COc1cc2c(cc1OC)C(=Cc1ccc(O)cc1)C(=O)N2 [RPI-1, 1,3-dihydro-5,6-dimethoxy-3-[(4-hydroxyphenyl)methylene]-H-indol-2-one]

Compound: CCn1c(N)c(C(=O)NC)c(=O)c2ccc(C#C[C@@](C)(O)COC)nc21 [SAR131675, (R)-2-amino-1-ethyl-7-(3-hydroxy-4-methoxy-3-methylbut-1-ynyl)-N-methyl-4-oxo-1,4-dihydro-1,8-naphthyridine-3-carboxamide]
activity against Akt1, CDKs, PLK1, EGFR, IGF-1R, c-Met, Flt2 etc. [16]: little activity
Ki (VEGFR3): 0.012 µM
more selective for VEGFR3 than VEGFR1 (VEGFR3): about 50 fold
more selective for VEGFR3 than VEGFR2 (VEGFR3): ~10 fold
IC50 (VEGFR3; read-out: IC50 VEGFR3 (Flt4)): 0.023 µM

Compound: COc1cc2nccc(Oc3ccc(NC(=O)Nc4cc(C)on4)c(Cl)c3)c2cc1OC [Tivozanib, 1-(2-chloro-4-(6,7-dimethoxyquinolin-4-yloxy)phenyl)-3-(5-methylisoxazol-3-yl)urea]
activity against FGFR-1, Flt3, c-Met EGFR and IGF-1R [17]: low activity
activity against FGFR-1, Flt3, c-Met EGFR and IGF-1R [18]: low activity

Activity against EGFR (EGFR [19]): no activity
IC50 (PDGFR): 0.3 to 0.5 µM
Compound: COc1cc2ncc(-c3ccccc3)nc2cc1OC [Tyrphostin AG 1296, Quinoxaline, 6,7-dimethoxy-2-phenyl-]
